The subject of one data set is BHK cells. The data set is described as follows: Cytotoxicity in BHK cells. The format is cell-based, Baby Hamster. As to conditions: 100 µM, 24 h or 48 h; data not shown. As to the method:
(§1) The cells were plated in 12-well plates, to a confluence of 60% for the 24-h incubations, and 40% for 48-h exposure to PIs. These treatments were initiated 24-h after the plating of the cells. Phase-contrast images of the cells were taken just before the lysis of the cells for protein analysis, using a Lica DM6000 inverted microscope.

Another data set has as its system p21Waf1 in Caco-2 cells. The data set is described as follows: Immunoblot of p21Waf1 in Caco-2 cells. The format is cell-based, human. As to conditions: 200 µM alone, 48 h. An excerpt: (§2) The following antibodies were used: anti-APEH antibody (sc-102311; Santa Cruz Biotechnology); anti-NF-κB/p65 antibody (Thermo Scientific); anti-p21Waf1 antibody (Exbio); pan Ab-5 anti-actin antibody (clone ACTN05, Thermo Scientific); and monoclonal antibodies against polyubiquitinylated proteins conjugated with horseradish peroxidase (FK2H, Enzo, Life Science). The ΔF508CFTR-3HA protein was detected with an anti HA monoclonal antibody (Covance).
A general note: In western blotting, separated proteins are transferred to a membrane and probed.

Data set [1] relates to proteasome CT-like activity in BHK cells. Kind of data set: CT-like proteasome activity in BHK cells. The data set is classed as cell-based, Baby Hamster. As to conditions: 50 and 100 µM, 48 h. As to the method:
as §1

The target of another data set is T1, porcine APEH (Sus scrofa, UniProt P19205).
T1 construct: mammalian APEHs purified from both porcine liver and human colon carcinoma intestinal cells (Caco-2); purchased Takara; host or cells: porcine liver
T1 sequence (P19205 1-732): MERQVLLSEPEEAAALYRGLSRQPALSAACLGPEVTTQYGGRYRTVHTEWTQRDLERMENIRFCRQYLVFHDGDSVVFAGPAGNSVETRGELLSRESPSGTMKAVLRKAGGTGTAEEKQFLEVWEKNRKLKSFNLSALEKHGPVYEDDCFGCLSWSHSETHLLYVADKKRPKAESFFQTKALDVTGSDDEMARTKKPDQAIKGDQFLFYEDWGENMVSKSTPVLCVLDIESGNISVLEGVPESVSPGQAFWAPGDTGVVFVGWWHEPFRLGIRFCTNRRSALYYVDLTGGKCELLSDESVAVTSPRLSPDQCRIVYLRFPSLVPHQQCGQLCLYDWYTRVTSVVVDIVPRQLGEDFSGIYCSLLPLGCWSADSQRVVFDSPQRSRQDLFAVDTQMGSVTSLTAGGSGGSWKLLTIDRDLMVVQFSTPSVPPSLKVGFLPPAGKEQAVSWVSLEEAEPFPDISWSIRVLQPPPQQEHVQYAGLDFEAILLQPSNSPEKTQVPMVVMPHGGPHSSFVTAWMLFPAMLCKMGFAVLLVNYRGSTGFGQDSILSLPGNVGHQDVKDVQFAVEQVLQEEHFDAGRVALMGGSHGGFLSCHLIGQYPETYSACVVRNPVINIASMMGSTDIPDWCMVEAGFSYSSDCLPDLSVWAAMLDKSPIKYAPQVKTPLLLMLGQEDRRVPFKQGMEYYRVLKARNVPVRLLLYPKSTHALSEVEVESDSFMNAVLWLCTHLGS
The data set is described as follows: Inhibition of porcine liver APEH, Ac-Ala-pNA substrate. The format is biochemical. Here is the method: (§3) APEH activity was expressed in IU.
(§4) Protease inhibitor activities of the SsCEI peptides and the CLA isomers were carried out using a fixed amount of APEH or partially purified proteasome (3–5 nM and 0.12 mg/mL, respectively), and increasing the SsCEI and CLA isomer concentrations. Mixtures were pre-incubated for 30 min at 37°C before the addition of the substrate, and the enzymatic activities were followed as described above. Protease inhibitor activities of the SsCEI peptides and the CLA isomers were determined towards APEHSs. The protease and increasing concentrations of the inhibitors were mixed and preincubated for 30 min at 80°C before the addition of the specific substrate. The residual enzymatic activity was determined using the assay procedure described above.
(§5) All data were obtained from triplicate analyses of three different preparations. Data were presented as means ±S.D. Statistical analysis and IC50 values were calculated with the SigmaPlot 10.0 software through a non-linear curve-fitting method and using a simple binding isotherm equation. Groups were compared by Student's t test, and P<0.05 was considered as significant.

Data set [2] has as its system ΔF508 CFTR-3HA (CFTR-M) in BHK cells. Kind of data set: CFTR-M accumulation in BHK cells (immunoblot). The data set is classed as cell-based, Baby Hamster. As to conditions: 100 µM, 24 h, densitometry vs untreated. As to the method:
as §1

Data set [3] deals with T2, partially purified proteasome from Caco-2 cells (Homo sapiens, UniProt P28074).
T2 construct: a partially purified proteasome fraction from differentiated Caco-2 cells; endogenous in cells; host or cells: Caco-2
T2 sequence (P28074 60-263): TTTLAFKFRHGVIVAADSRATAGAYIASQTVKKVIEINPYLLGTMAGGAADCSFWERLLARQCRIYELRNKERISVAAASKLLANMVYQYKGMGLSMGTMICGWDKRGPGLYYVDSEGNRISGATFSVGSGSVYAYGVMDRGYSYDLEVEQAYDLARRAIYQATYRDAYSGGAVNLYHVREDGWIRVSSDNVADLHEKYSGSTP
The data set is described as follows: CT-like activity of partially purified proteasome from Caco-2 cells (cell-free). The format is biochemical. As to conditions: proteasome 0.12 mg/mL, pre-incubated 30 min at 37°C. As to the method:
APEH from Sulfolobus solfataricus was purified as previously reported. Partial purification of human APEH and proteasome was carried out from protein extracts of Caco-2 cell. Briefly, protein extracts (500 µg) were fractionated by gel filtration chromatography on a Superdex 200 PC 3.2/30 column connected to a SMART System (Pharmacia) equilibrated in buffer 50 mM Tris-HCl, pH 7.5, 100 mM NaCl, at 0.1 mL/min. The eluted fractions were assayed using the specific substrates for APEH and the proteasome. The active fractions were collected and used for further analysis.
as §4

A further data set concerns APEH in Caco-2 cells. The data set is described as follows: APEH activity in Caco-2 cells. As to conditions: differentiated Caco-2 cells, 200 µM, 48 h (maximum effect).
Another data set relates to APEHSs. Kind of data set: Inhibition of S. solfataricus APEH (APEHSs), Ac-Leu-pNA substrate. The format is biochemical, Sulfolobus solfataricus. As to the method: as §3, §4, §5
Data set [4] has as its system polyubiquitinylated proteins in Caco-2 cells. Kind of data set: Protein ubiquitinylation in Caco-2 cells (immunoblot). As to conditions: 48 h, 200 µM SsCEI 4 or t10c12-CLA, mixture, 100 µM ebelactone, 10 µM MG132, species 66 kDa to 160 kDa. The data set is classed as cell-based, human.
From the text: as §2

Data set [5] deals with proteasome CT-like activity in Caco-2 cells. Kind of data set: CT-like proteasome activity in Caco-2 cells.
Protocol: The synthetic fluorescent substrate N-succinyl-Leu-Leu-Val-Tyr-7-amido-4-methylcoumarin (N-Suc-LLVT-AMC) was used for the measurement of the CT-like activity of the proteasome, at a final concentration of 0.080 mM. The reaction mixture (0.9 mL) containing appropriate amount of proteasome was preincubated as above, in Tris buffer. N-Suc-LLVT-AMC was added, and the release of the fluorescent product (7-AMC) was monitored for 5 min in a Perkin–Elmer LS 50B fluorimeter. The excitation and emission wavelengths were 380 nm and 460 nm, respectively.
Caco-2 cells (ATCC) were cultivated in DMEM supplemented with 10% FBS, 1 mM glutamine and 100 units/mL penicillin-streptomycin at 37°C in a humidified 5% CO2 atmosphere. The cells were studied between passages 12 and 22. The cells were split using trypsin-EDTA solution and plated in 6-well plates at a density of 8×10^4 cells/mL and the medium was replaced every 2–3 days. […]
Following the treatments, the BHK and Caco-2 cells were washed three times with ice cold phosphate-buffered saline and collected immediately at 4°C in lysis buffer (1% Triton X-100, 0.1% SDS, 20 mM Tris-HCl, pH 8.0, 150 mM NaCl, 0.5% sodium deoxycholate and complete protease inhibitors [Roche]). […] The protein concentrations in the clear supernatants were determined (BCA protein assay reagent kit; Pierce) before their use in enzymatic assays or SDS–PAGE.

Protocol for APEH in Caco-2 cells: Porcine liver APEH activity was measured spectrophotometrically using the chromogenic substrate acetyl-Ala-pNA (Bachem). The reaction mixture (1 mL) containing pure APEH (38 ng) or an appropriate amount of cell extract in 50 mM Tris-HCl buffer pH 7.5 (Tris Buffer), was preincubated at 37°C for 2 min. Then, 1 mM acetyl-Ala-pNA was added and the release of p-nitroanilide (ε410 = 8800 M-1 cm-1) was measured by recording the absorbance increase at 410 nm on a Cary 100 Scan (Varian) UV/Vis spectrophotometer, equipped with a thermostated cuvette compartment. APEH activity was expressed in IU. The APEHSs activity was measured using acetyl-Leu-pNA (0.1 mM) (Sigma) as substrate. The reaction mixture (1 mL) containing the appropriate amount of enzyme in 25 mM Tris-HCl buffer pH 7.5, was preincubated at 80°C for 2 min. Then, 0.1 mM acetyl-Leu-pNA was added and the release of p-nitroanilide was measured, following the standard assay procedure described above.
Caco-2 cells (ATCC) were cultivated in DMEM supplemented with 10% FBS, 1 mM glutamine and 100 units/mL penicillin-streptomycin at 37°C in a humidified 5% CO2 atmosphere. The cells were studied between passages 12 and 22. The cells were split using trypsin-EDTA solution and plated in 6-well plates at a density of 8×10^4 cells/mL and the medium was replaced every 2–3 days. Under these conditions, the cells reached visual confluence after 7 days and the differentiated stage two weeks later. The differentiated cells were incubated for 48 h with the different substances.
Following the treatments, the BHK and Caco-2 cells were washed three times with ice cold phosphate-buffered saline and collected immediately at 4°C in lysis buffer (1% Triton X-100, 0.1% SDS, 20 mM Tris-HCl, pH 8.0, 150 mM NaCl, 0.5% sodium deoxycholate and complete protease inhibitors [Roche]). The lysates were centrifuged at 10,000×g for 15 min at 4°C. The protein concentrations in the clear supernatants were determined (BCA protein assay reagent kit; Pierce) before their use in enzymatic assays or SDS–PAGE.

`CCCCC/C=C\C=C\CCCCCCCCC(=O)O` [t10c12-CLA, trans10-cis12 CLA]: the “cytotoxic effects in BHK cells” value in the data set on BHK cells is “without any cytotoxic effects”. Further, the “increase of p21Waf1” value in the data set on p21Waf1 in Caco-2 cells is reported as “two”. In addition, the “proteasome CT-like activity in BHK cells” value in [1] is “dose-dependent inhibition”. Also, the IC50 at porcine APEH (Ac-Ala-pNA 1 mM, 50 mM Tris-HCl pH 7.5, pre-incubated 30 min at 37°C, mean ± SD, read-out: IC50 towards porcine APEH) stood at 105 ± 23 µM; in the data set on APEHSs (Ac-Leu-pNA 0.1 mM, 25 mM Tris-HCl pH 7.5, pre-incubated 30 min at 80°C, mean ± SD, read-out: IC50 towards APEHSs), 80 ± 2 µM. Besides, the “inhibition mechanism towards porcine APEH” value on porcine APEH (Lineweaver-Burk plot) is reported as “non–competitive”. Further, the “increase of CFTR-M levels” value in [2] was “five”. Besides, in data set [3], the “effect on partially purified proteasome CT-like activity” value is reported as “not affected”. Moreover, the “decrease of APEH activity in Caco-2 cells” value in the data set on APEH in Caco-2 cells amounted to 50%. Besides, the Ki at APEHSs (Lineweaver–Burk equation, Ac-Leu-pNA, read-out: Ki towards APEHSs) stood at 140 ± 20 µM. Further, the “inhibition mechanism towards APEHSs” value in the data set on APEHSs (Michaelis–Menten / Lineweaver–Burk analysis) is reported as “non-competitive”. Besides, in [4], the “polyubiquitin conjugates in cell extract” value is reported as “presence of high-molecular-mass immunoreactive species”. Moreover, the “reduction in proteasomal CT-like activity” value in [5] (200 µM, 48 h) stood at 40%. Besides, the “dose-dependent decrease of CT-like proteasome activity in Caco-2 cells” value in data set [5] (increasing concentrations, printed 'up to 45% of the residual activity' vs untreated) is reported as “up to 45%”.

Usually IC50 stands for the concentration at which inhibition is half-maximal. For orientation: Ki means a dissociation constant, usually derived from enzyme kinetics or from competition with a known ligand.

These data come from PMC3189933, “Acylpeptide Hydrolase Inhibition as Targeted Strategy to Induce Proteasomal Down-Regulation” (PLoS ONE, 2011).
